Assay results reported in patent EP1431306A1, “A mechanism for hiv-1 entry into host cells and peptides inhibiting this mechanism” (priority 2002, dated 2004).

Experiments:
TAT+/gp120-LV = test: Entry of TAT+/gp120-LV into C8166 cells after co-culture with U937/PINCO or U937/TAT cells; format: cell-based, HIV-1
Source text: This example is illustrated in Fig. 10. […] Said vector, as described in Example II, allows the expression of TAT, so that TAT is already present, as detailed described before, in the vector preparation and its amount is enhanced after the co-culture with U937/TAT cells. […] In particular, peptides with SEQ ID NO. 40 (RDKKKK), 42 (RDKKKV), 45 (KDKKEK), 47 (RDKKQK), 49 (RDKQQK), 50 (RDKVQK) revert the entry of more than 15%.
This example is illustrated in Fig. 11. […] 4 (CSFINT) and 44 (RDKVKK), where the entry experiment is performed with TAT+/gp120-LV, following 4 h co-culture of C8166 cells with U937/TAT cells. These two peptides are the ones derived from the Phage Display screening, and is here evaluated their ability of inhibit vector entry at concentrations lower than 100 µM (the concentration used in all the examples previously described). To verify if the integrity of the peptides is crucial for their activity, we have incubated the cells with said peptides in the presence of different protease inhibitors (aprotinin or a mix made by aprotinin, leupeptin, bestatin, pepstatin-A, AEBSF [4-(2-Aminoethyl) Benzenesulfonyl Fluoride Hydrochloride] and E-64 [(N-(N-(L-3-Transcarboxirane-2-Carbonyl)-L-Leucyl)-Agmatine)]). […] This example illustrates a way by which the power of said peptides can be improved.
Co-cultures and incubations with rTAT. […]
Transduction with HIV-1-derived lentivirus. Vector stocks were prepared by transient co-transfection of 293T cells with the following combinations of plasmids: pRRL.hPGK.GFP.SIN-18 + pCMV.DR8.2 + pMD.G (Naldini et al. (1996), supra) (VSV-G-LV) or pEnvHXB (Huang et al., J. Virol. 72 (1998), 8952-8960) (TAT+/gp120-LV); pRRL.hPGK.GFP.SIN-18 + pCMV.DR8.74 + pRSV-Rev ((Dull et al. (1998), supra) + pEnvHXB (TAT^-/gp120-LV). Vector concentration was determined by HIV-1 p24 Core profile ELISA following the manufacturer's instructions. The entry experiments were conducted on 10^5 cells per well of a 48-well plate in the presence of 8 µg/ml polybrene. The number of GFP-positive cells was analysed by FACS.

HIV-1 Ba-L = test: Infection of PHA-stimulated PBMCs with wild type HIV-1 Ba-L (early viral transcripts by PCR); format: cell-based; settings: 2 h at 37 °C, compared to 100 µM control peptide, SEQ ID NO.4 and 44: 100-50-10 µM, SEQ ID NO. 127: 1 µM-100-10 nM
Procedure: This example is illustrated in Fig. 12. […] 4 (CSFINT), 44 (RDKVKK) and the complete gp120 region SEQ ID NO.127 (CSFNITTEIRDKVKK), where the entry experiment is performed with two strains of HIV-1 on peripheral blood cells (PBMCs) derived from healthy donors. In particular, strain III B uses CXCR4 as a co-receptor (X4) and Ba-L uses CCR5 (R5).
In the graphs the percent inhibition of infection due to the peptides is shown, as compared to infection in the presence of 100 µM of a control peptide. PHA-stimulated PBMCs have been incubated with the peptides and immediately infected for 2 h at 37 °C. This incubation time is sufficient to evaluate virus entry, by detecting the presence of early viral transcripts into the cytoplasm of infected cells. The peptide concentrations are as follows: SEQ ID NO.4 and 44: 100-50-10 µM; SEQ ID NO. 127: 1 µM-100-10 nM. In Fig. 12A is represented the effect of the peptides on the basal infection of both viral strains, in Fig. 12B the effect of the peptides on the infection following incubation with rTAT 7 nM. A peptide-dependent inhibition of the basal infection by both HIV-1 strains is present already in the basal infection, reflecting the presence of TAT in the viral supernatants. […]
Infection with wild type HIV-1. […] Amplified DNA was analyzed by Southern blot hybridization with a ^32P-labeled probe, and quantified by densitometry. […]

Row | Substance | blocking of virus entry (TAT+/gp120-LV) (TAT+/gp120-LV; concentration lower than 100 µM, no protease inhibitors, 4 h co-culture with U937/TAT cells) | concentration at which the inhibitory effect is still visible (TAT+/gp120-LV; in the presence of protease inhibitors (aprotinin or mix), 4 h co-culture with U937/TAT cells) | inhibition of the basal infection (HIV-1 Ba-L) | reversion of TAT+/gp120-LV entry (TAT+/gp120-LV; 100 µM of the peptides, 4 h co-culture of C8166 cells with U937/PINCO or U937/TAT cells (effect potentiated by co-culture with U937/TAT))
1 | CSFINT [SEQ ID NO. 4] | inefficient in blocking virus entry | 5 µM | ~70% | 
2 | RDKKQQ [SEQ ID NO. 47] |  |  |  | more than 15%
